The results in this text go back to article PMC6437697 (Journal of Medicinal Chemistry, 2019).

Assay in all cases: KINOMEscan
What all share (type): binding

The target in assay [1] is T1, DCAMKL1 (Homo sapiens, UniProt O15075).
T1 construct: purchased Eurofins DiscoverX KINOMEscan
T1 sequence (O15075 1-740): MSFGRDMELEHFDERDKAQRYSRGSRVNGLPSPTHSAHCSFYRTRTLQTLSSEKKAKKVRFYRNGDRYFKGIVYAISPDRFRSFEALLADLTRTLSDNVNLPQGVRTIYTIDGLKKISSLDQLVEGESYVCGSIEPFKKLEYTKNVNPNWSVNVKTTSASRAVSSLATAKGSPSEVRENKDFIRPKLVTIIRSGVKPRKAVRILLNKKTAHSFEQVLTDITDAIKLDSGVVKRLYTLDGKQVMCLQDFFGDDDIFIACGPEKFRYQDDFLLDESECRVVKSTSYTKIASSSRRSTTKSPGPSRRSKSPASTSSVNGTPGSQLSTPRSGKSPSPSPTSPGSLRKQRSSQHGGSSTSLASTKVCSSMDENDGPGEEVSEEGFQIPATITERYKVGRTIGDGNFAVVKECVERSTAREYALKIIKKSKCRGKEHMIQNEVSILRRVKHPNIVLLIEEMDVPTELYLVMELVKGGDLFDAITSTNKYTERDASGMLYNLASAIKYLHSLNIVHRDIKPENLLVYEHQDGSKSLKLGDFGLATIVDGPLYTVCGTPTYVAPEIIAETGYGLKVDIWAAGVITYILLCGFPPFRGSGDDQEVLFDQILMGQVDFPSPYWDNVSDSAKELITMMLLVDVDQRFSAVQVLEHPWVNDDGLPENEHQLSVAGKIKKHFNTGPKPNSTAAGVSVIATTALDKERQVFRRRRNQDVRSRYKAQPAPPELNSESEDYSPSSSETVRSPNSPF
The following applies: read-out: % control activity remaining.

Assay [2] has as its target T2, FLT3(N841I) (Homo sapiens, UniProt P36888, N841I).
T2 construct: purchased Eurofins DiscoverX KINOMEscan
T2 sequence (P36888 27-993 N841I): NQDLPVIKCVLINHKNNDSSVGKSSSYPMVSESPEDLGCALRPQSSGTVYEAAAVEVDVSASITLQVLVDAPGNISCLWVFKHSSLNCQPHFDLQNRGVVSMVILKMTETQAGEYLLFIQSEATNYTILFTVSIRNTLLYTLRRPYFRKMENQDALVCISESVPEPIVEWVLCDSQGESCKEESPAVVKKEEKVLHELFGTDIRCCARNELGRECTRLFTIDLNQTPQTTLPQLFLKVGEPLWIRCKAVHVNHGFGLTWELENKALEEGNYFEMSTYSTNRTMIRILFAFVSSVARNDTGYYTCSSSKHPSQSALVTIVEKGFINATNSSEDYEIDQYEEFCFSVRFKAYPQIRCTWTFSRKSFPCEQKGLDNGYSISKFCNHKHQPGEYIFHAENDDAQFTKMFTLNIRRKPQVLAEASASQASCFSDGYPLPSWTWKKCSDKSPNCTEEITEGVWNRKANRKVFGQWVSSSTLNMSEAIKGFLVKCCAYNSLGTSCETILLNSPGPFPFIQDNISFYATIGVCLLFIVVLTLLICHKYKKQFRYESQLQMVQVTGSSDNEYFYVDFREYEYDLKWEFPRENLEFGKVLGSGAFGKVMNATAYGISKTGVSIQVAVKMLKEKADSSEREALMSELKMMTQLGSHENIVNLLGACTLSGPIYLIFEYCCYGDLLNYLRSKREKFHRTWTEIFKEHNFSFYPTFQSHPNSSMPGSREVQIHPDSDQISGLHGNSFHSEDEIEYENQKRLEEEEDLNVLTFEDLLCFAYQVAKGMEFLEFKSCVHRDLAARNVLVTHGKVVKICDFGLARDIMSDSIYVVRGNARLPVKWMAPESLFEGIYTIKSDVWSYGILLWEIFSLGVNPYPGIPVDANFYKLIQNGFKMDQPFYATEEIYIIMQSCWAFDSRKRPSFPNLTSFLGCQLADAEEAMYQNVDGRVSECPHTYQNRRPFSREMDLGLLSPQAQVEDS
The following applies: read-out: % control activity remaining.

Assay [3] concerns the target T3, GRK7 (Homo sapiens, UniProt Q8WTQ7).
T3 construct: purchased Eurofins DiscoverX KINOMEscan
T3 sequence (Q8WTQ7 1-553): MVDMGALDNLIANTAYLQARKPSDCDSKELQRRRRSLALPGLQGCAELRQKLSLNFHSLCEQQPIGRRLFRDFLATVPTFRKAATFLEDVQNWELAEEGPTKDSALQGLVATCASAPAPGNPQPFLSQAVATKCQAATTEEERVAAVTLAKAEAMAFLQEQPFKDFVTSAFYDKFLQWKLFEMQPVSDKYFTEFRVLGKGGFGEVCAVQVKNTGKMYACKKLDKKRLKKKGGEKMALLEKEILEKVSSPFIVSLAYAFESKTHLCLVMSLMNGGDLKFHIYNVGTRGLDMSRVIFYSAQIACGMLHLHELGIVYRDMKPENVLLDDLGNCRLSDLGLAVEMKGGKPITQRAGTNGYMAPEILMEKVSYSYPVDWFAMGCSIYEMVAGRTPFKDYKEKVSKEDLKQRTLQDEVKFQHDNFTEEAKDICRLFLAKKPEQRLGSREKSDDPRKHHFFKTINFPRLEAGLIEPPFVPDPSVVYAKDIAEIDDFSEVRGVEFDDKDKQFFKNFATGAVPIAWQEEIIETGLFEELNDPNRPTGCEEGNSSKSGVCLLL
Particulars: read-out: % control activity remaining.

Assay [4] deals with T4, PIK4CB (Homo sapiens, UniProt Q9UBF8).
T4 construct: purchased Eurofins DiscoverX KINOMEscan
T4 sequence (Q9UBF8 whole entry): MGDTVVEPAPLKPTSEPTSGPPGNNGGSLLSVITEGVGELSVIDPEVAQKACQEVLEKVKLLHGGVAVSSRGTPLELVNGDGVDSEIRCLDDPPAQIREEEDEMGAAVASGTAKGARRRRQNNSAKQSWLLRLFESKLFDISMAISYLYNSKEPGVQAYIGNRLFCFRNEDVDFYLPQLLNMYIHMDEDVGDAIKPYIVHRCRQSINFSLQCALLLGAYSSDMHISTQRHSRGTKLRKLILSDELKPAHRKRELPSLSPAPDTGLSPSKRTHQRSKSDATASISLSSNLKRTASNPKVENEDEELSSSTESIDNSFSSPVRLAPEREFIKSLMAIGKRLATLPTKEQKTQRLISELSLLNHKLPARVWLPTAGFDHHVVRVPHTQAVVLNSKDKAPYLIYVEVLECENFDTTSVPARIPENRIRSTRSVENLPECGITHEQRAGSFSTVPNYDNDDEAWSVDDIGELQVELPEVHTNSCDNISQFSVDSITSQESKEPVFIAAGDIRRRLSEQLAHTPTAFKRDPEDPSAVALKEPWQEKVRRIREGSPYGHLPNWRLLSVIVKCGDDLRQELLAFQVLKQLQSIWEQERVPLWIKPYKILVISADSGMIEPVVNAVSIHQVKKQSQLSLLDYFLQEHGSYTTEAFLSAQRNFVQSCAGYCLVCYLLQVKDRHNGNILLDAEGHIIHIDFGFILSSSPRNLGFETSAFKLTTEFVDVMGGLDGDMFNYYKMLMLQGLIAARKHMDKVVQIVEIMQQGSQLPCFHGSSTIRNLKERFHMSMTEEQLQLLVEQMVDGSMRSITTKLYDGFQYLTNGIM
The following applies: for remaining binding at 1 µM: read-out: % control activity remaining.

The target in assay [5] is T5, DAPK3 (Homo sapiens, UniProt O43293).
T5 construct: purchased Eurofins DiscoverX KINOMEscan
T5 sequence (O43293 whole entry): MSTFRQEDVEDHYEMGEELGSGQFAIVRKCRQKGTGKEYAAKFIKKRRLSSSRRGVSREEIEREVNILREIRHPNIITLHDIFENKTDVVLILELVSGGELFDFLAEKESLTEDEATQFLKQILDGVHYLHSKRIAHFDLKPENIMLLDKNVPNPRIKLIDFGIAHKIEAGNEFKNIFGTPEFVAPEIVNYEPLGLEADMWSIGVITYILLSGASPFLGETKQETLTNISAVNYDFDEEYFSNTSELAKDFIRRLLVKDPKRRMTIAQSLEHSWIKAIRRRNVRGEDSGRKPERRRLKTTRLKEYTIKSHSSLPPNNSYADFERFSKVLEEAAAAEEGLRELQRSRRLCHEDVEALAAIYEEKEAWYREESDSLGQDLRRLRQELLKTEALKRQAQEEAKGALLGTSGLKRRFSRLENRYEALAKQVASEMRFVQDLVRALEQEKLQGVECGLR
Particulars: read-out: % control activity remaining.

In the case of `Clc1cc(NCC2CC2)c2ncc(-c3ccc4[nH]ncc4c3)n2n1` [compound 2, 6-Chloro-N-(cyclopropylmethyl)-3-(1H-indazol-5-yl)imidazo[1,2-b]pyridazin-8-amine], the remaining binding at 1 µM in assay [1] worked out at 99%; in assay [2], 7.5%; in assay [3], 97%; in assay [4], 3.3%; in assay [5], 85%. For the same compound, in assay [4] (read-out: Probe binding inhibited), the inhibition at 1 µM is over 90%.

In the case of `O=C(CN1CCOCC1)N[C@H]1CC[C@H](Nc2cc(Cl)nn3c(-c4ccc5[nH]ncc5c4)cnc23)CC1` [compound 26], the remaining binding at 1 µM in assay [1] was 100%; in assay [2], 0%; in assay [3] it was 63%; in assay [4], 21%; in assay [5], 34%.

For `CN1CCC(CNc2cc(Cl)nn3c(-c4cc5nc(Nc6ccccc6)[nH]c5cc4F)cnc23)CC1` [compound 31, 6-Chloro-3-(6-fluoro-2-(phenylamino)-1H-benzo[d]imidazol-5-yl)-N-((1-methylpiperidin-4-yl)methyl)imidazo[1,2-b]pyridazin-8-amine], the remaining binding at 1 µM amounted to 81% in assay [1]; 96% in assay [2]; 77% in assay [3]; 73% in assay [4]; 84% in assay [5].
